Results published in paper PMC6272399, “Anti-Proliferative Effect and Induction of Apoptosis in Androgen-Independent Human Prostate Cancer Cells by 1,5-Bis(2-hydroxyphenyl)-1,4-pentadiene-3-one” (Molecules, 2015).

tested on: DU 145 cells; assay: MTT cytotoxicity (cell viability) assay, DU 145; format: cell-based, human; conditions: DU 145, MTT, vs untreated
Description: (§1) Cell viability was determined by the MTT [3-(4,5-dimethylthiazol-2-yl)-2,5-diphenyltetrazolium bromide] assay, as previously described by Mosmann with modifications. Briefly, cells were detached from the tissue culture flask and pelleted by centrifugation at 1000 rpm for 5 min. Then, the density of the viable cells was counted using a haemocytometer. Cells were then plated in a 96-well flat bottom micro-titer plate (Nunc) at a concentration of 10^4 cells/mL and incubated in a 5% CO2 incubator at 37 °C overnight to allow the cells to adhere to the bottom of the wells. After 24 h, the media was aspirated off and replaced with fresh media containing sample compounds (curcumin and curcumin analogues) of seven different concentrations ranging from 1.56 µM–100 µM and incubated at 37 °C, 5% CO2 for 72 h. Separately, the sample compounds were prepared in a stock solution of 50 mM in 100% dimethyl sulfoxide (DMSO, Molecular Biology Grade, Sigma-Aldrich, St. Louis, MO, USA) and diluted in the culture media to a working concentration of 200 µM. Curcumin, the parent compound which was used as the positive control was also prepared in the similar manner. A two-fold serial dilution was done for each sample in triplicates down the columns of the plate, yielding a final volume and concentration of 100 µL in 0.2% DMSO in each wells. Following treatment, 50 µL MTT solutions (0.5 mg/mL in PBS) was added to each well and incubated for another 4 h at 37 °C in a humidified 5% CO2 incubator. The supernatant was replaced with 100 µL of DMSO and the optical density (OD) was measured at 570/650 nm using a micro-plate ELISA reader (Bio-Rad Laboratories, Hercules, CA, USA). The percentage of viable cells was calculated based on the ratio of the corrected absorbance of sample-treated cells to the corrected absorbance of the control (0.2% DMSO-treated cells) multiplied by 100. The percentage of cell viability was determined as follows: % Cell viability= OD of treated cells /OD of control ×100
(§2) For each compound tested, the EC50 value was generated from the log dose-response curves for each cell line using the Graphpad Prism version 5.04 for Windows (Graphpad Software, La Jolla, CA, USA). […] Cytotoxicity of each tested compound is expressed as the EC50 value. Based on the EC50 values, selectivity index (SX) value was also determined. Selectivity index is a special parameter applied as a selectivity indicator of tested compounds towards cancer cells. The SX represents the ratio of EC50 value obtained in toxicity testing using the normal cell lines to the EC50 values of the toxicity testing of the cancer cells, and then multiplied by 100. All the compounds were assessed for their potential toxicity against normal, non-cancerous cells. […] The SX values were calculated using the following equation: SX = EC50 (normal cells)/EC50 (cancer cells) × 100

Compound	dose from which decrease in cell viability is significant
COc1cc(/C=C/C(=O)CC(=O)/C=C/c2ccc(O)c(OC)c2)ccc1O [Curcumin, diferuloylmethane, reference compound]	50 µM
COc1cc(C=CC(=O)C=Cc2ccc(O)c(OC)c2)ccc1O [MS13, 1,5-bis(4-hydroxy-3-methoxyphenyl)-1,4-pentadiene-3-one]	12.5 µM
O=C1C(=Cc2cccc(F)c2)CCCC1=Cc1cccc(F)c1 [MS49, 2,6-bis(3-fluorobenzylidene)cyclohexanone]	25 µM

same assay, conditions: Homo sapiens, DU-145; MTT, 72 h treatment, mean ± SD, three experiments; read-out: EC50 Values (µM) of Compounds on Cell Lines DU 145

Compound	EC50
COc1cc(/C=C/C(=O)CC(=O)/C=C/c2ccc(O)c(OC)c2)ccc1O [Curcumin, diferuloylmethane, reference compound]	32.5 ± 1.4 µM
COc1cc(C=CC(=O)C=Cc2ccc(O)c(OC)c2)ccc1O [MS13, 1,5-bis(4-hydroxy-3-methoxyphenyl)-1,4-pentadiene-3-one]	7.4 ± 2.6 µM
O=C1C(=Cc2cccc(F)c2)CCCC1=Cc1cccc(F)c1 [MS49, 2,6-bis(3-fluorobenzylidene)cyclohexanone]	12.3 ± 2.3 µM

same assay, conditions: SX = EC50 (WI-38)/EC50 (DU 145) × 100

Compound	Selective index (SX) WI-38 vs DU 145
COc1cc(/C=C/C(=O)CC(=O)/C=C/c2ccc(O)c(OC)c2)ccc1O [Curcumin, diferuloylmethane, reference compound]	85.8
COc1cc(C=CC(=O)C=Cc2ccc(O)c(OC)c2)ccc1O [MS13, 1,5-bis(4-hydroxy-3-methoxyphenyl)-1,4-pentadiene-3-one]	127.2
O=C1C(=Cc2cccc(F)c2)CCCC1=Cc1cccc(F)c1 [MS49, 2,6-bis(3-fluorobenzylidene)cyclohexanone]	158.6

same assay, conditions: SX = EC50 (WRL68)/EC50 (DU 145) × 100

Compound	Selective index (SX) WRL68 vs DU 145
COc1cc(/C=C/C(=O)CC(=O)/C=C/c2ccc(O)c(OC)c2)ccc1O [Curcumin, diferuloylmethane, reference compound]	88.2
COc1cc(C=CC(=O)C=Cc2ccc(O)c(OC)c2)ccc1O [MS13, 1,5-bis(4-hydroxy-3-methoxyphenyl)-1,4-pentadiene-3-one]	117.3
O=C1C(=Cc2cccc(F)c2)CCCC1=Cc1cccc(F)c1 [MS49, 2,6-bis(3-fluorobenzylidene)cyclohexanone]	106.8

tested on: WI-38 (human lung fibroblast cells); assay: MTT cytotoxicity assay, normal WI-38; format: cell-based; conditions: normal cell line, 72 h treatment, mean ± SD, read-out: EC50 Values (µM) of Compounds on Cell Lines WI-38
Description: as §1, §2

Compound	EC50
COc1cc(/C=C/C(=O)CC(=O)/C=C/c2ccc(O)c(OC)c2)ccc1O [Curcumin, diferuloylmethane, reference compound]	27.9 ± 2.9 µM
COc1cc(C=CC(=O)C=Cc2ccc(O)c(OC)c2)ccc1O [MS13, 1,5-bis(4-hydroxy-3-methoxyphenyl)-1,4-pentadiene-3-one]	9.4 ± 2.3 µM
O=C1C(=Cc2cccc(F)c2)CCCC1=Cc1cccc(F)c1 [MS49, 2,6-bis(3-fluorobenzylidene)cyclohexanone]	19.4 ± 7 µM

tested on: PC-3 cells; assay: BrdU cell proliferation assay, PC-3; format: cell-based, human; conditions: PC-3, BrdU, 24 h
Description: (§3) The anti-proliferative effects of compound on treated cells, was measured using the BrdU cell proliferation assay kit (Roche Applied Science Diagnostics, Indianapolis, IN, USA) according to the manufacturer’s protocol. The assay was based on incorporation of BrdU during DNA synthesis in proliferating cells. Cells were plated at a concentration of 10^4 cells/mL in a 96-well microtiter plate and incubated overnight. The cells were treated with compounds and curcumin (concentrations ranging from 1.56 µM–100 µM) as positive control for 24, 48 and 72 h respectively. Then, BrdU labeling solution (5 µL, diluted by 1/100 in culture media) was added to each well and incubated for 2 h at 37 °C. The media was replaced with fix/denaturing solution (100 µL) and incubated for 30 min at room temperature. Then, the fix/denaturing solution was removed by tapping off and followed by addition of 50 µL anti-BrdU antibody (50 µL, diluted by 1/100 in dilution buffer) to each well and further incubated for another 90 min at room temperature. Next, the cells were washed 3 times with wash buffer and substrate solution (50 µL) was added to each well. The plate was left for 10 min at room temperature in the dark and the absorbance was measured at a wavelength of 370 nm with a reference wavelength of 492 nm using a micro-plate ELISA reader (Bio-Rad). The percentage of BrdU incorporation was determined based on the ratio of absorbance of sample treated-cells to absorbance of control (untreated cells/DMSO only) multiplied by 100.

Compound	concentration from which anti-proliferative activity is significant
COc1cc(/C=C/C(=O)CC(=O)/C=C/c2ccc(O)c(OC)c2)ccc1O [Curcumin, diferuloylmethane, reference compound]	50 µM
COc1cc(C=CC(=O)C=Cc2ccc(O)c(OC)c2)ccc1O [MS13, 1,5-bis(4-hydroxy-3-methoxyphenyl)-1,4-pentadiene-3-one]	12.5 µM
O=C1C(=Cc2cccc(F)c2)CCCC1=Cc1cccc(F)c1 [MS49, 2,6-bis(3-fluorobenzylidene)cyclohexanone]	25 µM

same assay, conditions: PC-3, BrdU, 48 h

Compound	concentration from which anti-proliferative activity is significant
COc1cc(/C=C/C(=O)CC(=O)/C=C/c2ccc(O)c(OC)c2)ccc1O [Curcumin, diferuloylmethane, reference compound]	50 µM
COc1cc(C=CC(=O)C=Cc2ccc(O)c(OC)c2)ccc1O [MS13, 1,5-bis(4-hydroxy-3-methoxyphenyl)-1,4-pentadiene-3-one]	12.5 µM
O=C1C(=Cc2cccc(F)c2)CCCC1=Cc1cccc(F)c1 [MS49, 2,6-bis(3-fluorobenzylidene)cyclohexanone]	25 µM

same assay, conditions: PC-3, BrdU, 72 h

Compound	concentration from which anti-proliferative activity is significant
COc1cc(/C=C/C(=O)CC(=O)/C=C/c2ccc(O)c(OC)c2)ccc1O [Curcumin, diferuloylmethane, reference compound]	50 µM
COc1cc(C=CC(=O)C=Cc2ccc(O)c(OC)c2)ccc1O [MS13, 1,5-bis(4-hydroxy-3-methoxyphenyl)-1,4-pentadiene-3-one]	12.5 µM
O=C1C(=Cc2cccc(F)c2)CCCC1=Cc1cccc(F)c1 [MS49, 2,6-bis(3-fluorobenzylidene)cyclohexanone]	25 µM

tested on: WRL 68 (human epithelial hepatocytes); assay: MTT cytotoxicity assay, normal WRL 68; format: cell-based; conditions: WRL68, normal cell line, 72 h treatment, mean ± SD, read-out: EC50 Values (µM) of Compounds on Cell Lines WRL-68
Description: as §1, §2

Compound	EC50
COc1cc(/C=C/C(=O)CC(=O)/C=C/c2ccc(O)c(OC)c2)ccc1O [Curcumin, diferuloylmethane, reference compound]	28.7 ± 3.2 µM
COc1cc(C=CC(=O)C=Cc2ccc(O)c(OC)c2)ccc1O [MS13, 1,5-bis(4-hydroxy-3-methoxyphenyl)-1,4-pentadiene-3-one]	8.7 ± 0.2 µM
O=C1C(=Cc2cccc(F)c2)CCCC1=Cc1cccc(F)c1 [MS49, 2,6-bis(3-fluorobenzylidene)cyclohexanone]	13.1 ± 0.4 µM

tested on: PC-3 cells; assay: MTT cytotoxicity (cell viability) assay, PC-3; format: cell-based, human; conditions: Homo sapiens, PC-3; MTT, 72 h treatment, mean ± SD, three experiments; read-out: EC50 Values (µM) of Compounds on Cell Lines PC-3
Description: as §1, §2

Compound	EC50
COc1cc(/C=C/C(=O)CC(=O)/C=C/c2ccc(O)c(OC)c2)ccc1O [Curcumin, diferuloylmethane, reference compound]	35.9 ± 2.9 µM
COc1cc(C=CC(=O)C=Cc2ccc(O)c(OC)c2)ccc1O [MS13, 1,5-bis(4-hydroxy-3-methoxyphenyl)-1,4-pentadiene-3-one]	7.5 ± 0.1 µM
O=C1C(=Cc2cccc(F)c2)CCCC1=Cc1cccc(F)c1 [MS49, 2,6-bis(3-fluorobenzylidene)cyclohexanone]	14.5 ± 1.2 µM

same assay, conditions: PC-3, MTT, vs untreated

Compound	dose from which decrease in cell viability is significant
COc1cc(/C=C/C(=O)CC(=O)/C=C/c2ccc(O)c(OC)c2)ccc1O [Curcumin, diferuloylmethane, reference compound]	50 µM
COc1cc(C=CC(=O)C=Cc2ccc(O)c(OC)c2)ccc1O [MS13, 1,5-bis(4-hydroxy-3-methoxyphenyl)-1,4-pentadiene-3-one]	6.3 µM
O=C1C(=Cc2cccc(F)c2)CCCC1=Cc1cccc(F)c1 [MS49, 2,6-bis(3-fluorobenzylidene)cyclohexanone]	12.5 µM

same assay, conditions: SX = EC50 (WI-38)/EC50 (PC-3) × 100

Compound	Selective index (SX) WI-38 vs PC-3
COc1cc(/C=C/C(=O)CC(=O)/C=C/c2ccc(O)c(OC)c2)ccc1O [Curcumin, diferuloylmethane, reference compound]	77.5
COc1cc(C=CC(=O)C=Cc2ccc(O)c(OC)c2)ccc1O [MS13, 1,5-bis(4-hydroxy-3-methoxyphenyl)-1,4-pentadiene-3-one]	124.8
O=C1C(=Cc2cccc(F)c2)CCCC1=Cc1cccc(F)c1 [MS49, 2,6-bis(3-fluorobenzylidene)cyclohexanone]	134.3

same assay, conditions: SX = EC50 (WRL68)/EC50 (PC-3) × 100

Compound	Selective index (SX) WRL68 vs PC-3
COc1cc(/C=C/C(=O)CC(=O)/C=C/c2ccc(O)c(OC)c2)ccc1O [Curcumin, diferuloylmethane, reference compound]	79.8
COc1cc(C=CC(=O)C=Cc2ccc(O)c(OC)c2)ccc1O [MS13, 1,5-bis(4-hydroxy-3-methoxyphenyl)-1,4-pentadiene-3-one]	115.1
O=C1C(=Cc2cccc(F)c2)CCCC1=Cc1cccc(F)c1 [MS49, 2,6-bis(3-fluorobenzylidene)cyclohexanone]	90.4

tested on: DU 145 cells; assay: BrdU cell proliferation assay, DU 145; format: cell-based, human; conditions: DU 145, BrdU, 24 h
Description: as §3

Compound	concentration from which anti-proliferative activity is significant
COc1cc(/C=C/C(=O)CC(=O)/C=C/c2ccc(O)c(OC)c2)ccc1O [Curcumin, diferuloylmethane, reference compound]	50 µM
COc1cc(C=CC(=O)C=Cc2ccc(O)c(OC)c2)ccc1O [MS13, 1,5-bis(4-hydroxy-3-methoxyphenyl)-1,4-pentadiene-3-one]	12.5 µM
O=C1C(=Cc2cccc(F)c2)CCCC1=Cc1cccc(F)c1 [MS49, 2,6-bis(3-fluorobenzylidene)cyclohexanone]	25 µM

same assay, conditions: DU 145, BrdU, 48 h

Compound	concentration from which anti-proliferative activity is significant
COc1cc(/C=C/C(=O)CC(=O)/C=C/c2ccc(O)c(OC)c2)ccc1O [Curcumin, diferuloylmethane, reference compound]	50 µM
COc1cc(C=CC(=O)C=Cc2ccc(O)c(OC)c2)ccc1O [MS13, 1,5-bis(4-hydroxy-3-methoxyphenyl)-1,4-pentadiene-3-one]	12.5 µM
O=C1C(=Cc2cccc(F)c2)CCCC1=Cc1cccc(F)c1 [MS49, 2,6-bis(3-fluorobenzylidene)cyclohexanone]	25 µM

same assay, conditions: DU 145, BrdU, 72 h

Compound	concentration from which anti-proliferative activity is significant
COc1cc(/C=C/C(=O)CC(=O)/C=C/c2ccc(O)c(OC)c2)ccc1O [Curcumin, diferuloylmethane, reference compound]	50 µM
COc1cc(C=CC(=O)C=Cc2ccc(O)c(OC)c2)ccc1O [MS13, 1,5-bis(4-hydroxy-3-methoxyphenyl)-1,4-pentadiene-3-one]	25 µM
O=C1C(=Cc2cccc(F)c2)CCCC1=Cc1cccc(F)c1 [MS49, 2,6-bis(3-fluorobenzylidene)cyclohexanone]	50 µM
